Experimental data: US20240325409A1, “Fused Heterotetracyclic Antiviral Agents” (Enanta Pharmaceuticals, Inc., priority 2023, published 2024)

Tests used:
HDV = HDV infection of HepG2-NTCP cells, viral RNA by RT-qPCR; type: cell-based; details: 288 h, 800 GE/cell, viral RNA at day 12 post infection, 50% reduction relative to DMSO controls, read-out: Cellular EC50
Description: (§1) HepG2-NTCP A3 cells were maintained in DMEM media supplemented with GlutaMAX™, 10% fetal bovine serum, 1% penicillin/streptomycin, and 5 ug/mL puromycin at 37° C. in a humidified atmosphere with 5% CO2 in a collagen-coated tissue culture flask.
HDV virus collected from the supernatants of HuH7-END cells was purified in the presence of 6% polyethylene glycol (PEG). Viral titer was then quantified by RT-qPCR using HDV specific primers against a reference standard. For HDV infection, HepG2-NTCP cells were seeded in 96-well plates at 60,000 cells/well. On the day of infection, compounds were 4-fold serially diluted in DMSO and pre-incubated with HepG2-NTCP cells for two hours before infecting with 800 GE/cell of HDV in 4% PEG. On day one post infection, HDV-containing media was aspirated, cells were washed once with PBS and then maintained in 2.5% DMSO containing media for the remainder of the assay. Viral RNA was isolated using RNeasy kits (Qiagen) at day 12 post infection and reverse transcribed into cDNA using High-Capacity RNA-to-cDNA Kit (Thermo Fisher). Relative HDV gene expression was quantified by RT-qPCR after normalization to expression of a housekeeping gene. Irrespective of readout, compound concentrations that reduce viral RNA by 50% relative to DMSO controls (EC50) are reported. EC50 ranges are as follows: A<0.1 µM; B 0.1-1 µM; C>1 µM.

HBV = HBV infection of HepG2-NTCP cells, HBeAg AlphaLISA readout; type: cell-based; details: Hepatitis B virus, 192 h, 2000 GE/cell, HBeAg in supernatant at day 8 post infection, 50% reduction relative to DMSO controls, read-out: Cellular EC50
Description: as §1
HepG2-NTCP cells were seeded in 384 well plate containing 16,000 cells/well two days prior to the infection. On the day of infection, compounds were 3-fold serially diluted in DMSO and pre-incubated with HepG2-NTCP cells for two hours before purified HBV addition. HBV infection was carried out at 2000 GE/cell with 4% PEG, and the final concentration of DMSO is 0.5%. On day one post infection, HBV-containing media was aspirated, cells were washed once with PBS and then maintained in 2.5% DMSO containing media for the remainder of the assay.
Supernatants from infected HepG2-NTCP cells were collected at day 8 post infection, and the amount of viral antigen HBeAg was measured by HBeAg AlphaLISA detection kit (PerkinElmer) following the manufacturer's recommended protocol. Irrespective of readout, compound concentrations that reduce viral product accumulation in supernatants by 50% relative to DMSO controls (EC50) are reported. EC50 ranges are as follows: A<0.1 µM; B 0.1-1 µM; C>1 µM.

Row | EC50 (HDV) [nM] | EC50 (HBV) [nM] | SMILES
1 | < 100 | 100 to 1000 | CN1[C@H](C2CCC2)CN(c2ccccc2)c2cc3c(cc2S1(=O)=O)-c1cc(C(=O)O)ccc1CO3 [Example 1, (R)-10-cyclobutyl-11-methyl-8-phenyl-8,9,10,11-tetrahydro-5H-benzo[3,4]chromeno[7,6-f][1,2,5]thiadiazepine-2-carboxylic acid 12,12-dioxide]
2 |  | 100 to 1000 | CCCC[C@@H]1CN(c2ccccc2)c2cc3c(cc2S(=O)(=O)N1C)-c1cc(C(=O)O)ccc1OCCO3 [Example 35, (R)-12-butyl-13-methyl-10-phenyl-6,7,10,11,12,13-hexahydrobenzo[7′,8′][1,4]dioxocino[6′,5′:4,5]benzo[1,2-f][1,2,5]thiadiazepine-2-carboxylic acid 14,14-dioxide]
3 |  | < 100 | CN1[C@H](C2CCC2)CN(c2ccccc2)c2cc3c(cc2S1(=O)=O)-c1sc(C(=O)O)cc1CO3 [Example 36, (R)-9-cyclobutyl-10-methyl-7-phenyl-7,8,9,10-tetrahydro-4H-thieno[3′,2′:3,4]chromeno[7,6-f][1,2,5]thiadiazepine-2-carboxylic acid 11,11-dioxide]
4 |  | < 100 | CCCN1C[C@@H](CC(C)C)N(C)S(=O)(=O)c2cc3c(cc21)OCc1c-3cc(C(=O)O)c(F)c1F [Example 37]
5 |  | < 100 | CC(C)C[C@@H]1CN(C2CC3(CCC3)C2)c2cc3c(cc2S(=O)(=O)N1C)-c1cc(C(=O)O)c(F)c(F)c1CO3 [Example 38]
6 |  | 100 to 1000 | CC(C)C[C@@H]1CN(C2CCC2)c2cc3c(cc2S(=O)(=O)N1C)-c1cc(C(=O)O)c(F)c(F)c1CO3 [Example 39]
7 |  | 100 to 1000 | COC(C)(C)CN1C[C@@H](CC(C)C)N(C)S(=O)(=O)c2cc3c(cc21)OCc1c-3cc(C(=O)O)c(F)c1F [Example 40]
